# Bridge positions count the residues as written; N and C are the ends. Square brackets hold non-standard residues; d marks the D form. Peptide text beside a SMILES is read from it. N(1-adamantyl)Gly = O=C(O)CNC12CC3CC(CC(C3)C1)C2; Cha = N[C@@H](CC1CCCCC1)C(=O)O; S5 = C=CCCC[C@](C)(N)C(=O)O; PEG3 = NCCOCCOCCOCCC(=O)O
# Legend:
# [1] = molecular target: T1, PAS-B domain of human SRC-1 (residues 257–385) (Homo sapiens, UniProt Q15788); test: Competitive fluorescence polarization (FP) assay, fluorescein-labeled STAT-6 peptide binding to SRC-1; conditions: 100 nM fluorescein-labeled 15-mer STAT-6 peptide, 1 μM PAS-B domain of SRC-1, HEPES pH 7.4, SD from three independent experiments
# T1 construct: PAS-B domain of human SRC-1 (residues 257–385); His6; made in house; host or cells: Rosetta E. coli
# T1 sequence (Q15788 257-385): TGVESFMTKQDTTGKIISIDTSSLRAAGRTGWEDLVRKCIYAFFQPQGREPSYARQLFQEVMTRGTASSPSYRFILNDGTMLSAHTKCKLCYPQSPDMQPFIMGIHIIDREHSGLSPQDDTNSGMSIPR
# Description: A plasmid expressing the PAS-B domain of human SRC-1 (residues 257–385) tagged with His6 was provided by John A. Robinson (University of Zürich at Switzerland). It was transformed into Rosetta E. coli cells. SRC-1 protein purification was performed as described previously.
# After incubating 100 nM of fluorescein-labeled 15-mer STAT-6 peptide with 1 μM of PAS-B domain of SRC-1 in a binding buffer (50 mM HEPES pH 7.4, 150 mM NaCl, 3.4 mM EDTA, and 0.01% Tween 20) in a black Greiner 384-well plate for 30 min, indicated concentrations of YL2 and YL2-HyT1 through YL2-HyT6 were added to each well. After incubation for another 1.5 h, fluorescence polarization was measured on a Tecan Infinite F200 Pro microplate reader (excitation wavelength: 485 nm, emission wavelength: 535 nm). The Ki values of the compounds in the competition assay were determined using the following equation [43]. (1) Ki=[I]50/[L]50/KD+[P]0/KD+1 where [I]50 is the concentration of the free inhibitor at 50% inhibition, KD is the dissociation constant of the protein–ligand complex, [L]50 is the concentration of the free labeled ligand at 50% inhibition, and [P]0 is the concentration of the free protein at 0% inhibition.
# MDA-MB-231 cells = test: Gap closure migration (wound healing) assay; assay type: cell-based, human; conditions: 20 µM, 72 h
# Description: MDA-MB-231 cells (2.8 × 10^4 cells/well) were seeded into Culture-Insert 2 wells (ibidi, 80209) placed in a 35 mm culture dish. After incubation at 37 °C with 5% CO2 for 24 h, Culture-Insert 2 wells were carefully removed from the culture dish with a sterilized tweezer. These cells were then treated with indicated compounds (YL2, adamantane, ND1-YL2, or YL2-HyT6) in Opti-MEM medium for 72 h. Cell images were obtained with a culture microscope (Olympus, Tokyo, Japan, CKX41). The cell-free area of the image was quantified with ImageJ software (NIH, Bethesda, MD, USA). The relative gap-closure area was calculated using the following equation: […] where A was the cell-free area. (2) Gap−Closure %=At=0 h−At=72 h/At=0 h×100
# [2] = system: E-cadherin mRNA in MDA-MB-231 cells; test: RT-qPCR of E-cadherin mRNA; assay type: cell-based, human; conditions: 18 h, RT-qPCR normalized to 18S
# Description: (§1) Quantitative real-time PCR was performed for CSF-1, E-cadherin, and 18S (as a reference gene) mRNAs. MDA-MB-231 cells (1.2 × 10^5 cells/well) were seeded into a 12-well plate and incubated at 37 °C with 5% CO2 for 24 h. These cells were treated with indicated compounds (YL2, adamantane, ND1-YL2, or YL2-HyT6) for 18 h in Opti-MEM medium. After cells were washed with cold DPBS, mRNAs were isolated from these cells using an AccuPrep Universal RNA extraction kit (Bioneer, Daejeon, Korea). Then 1.5 µg of mRNAs were reverse-transcribed using AccuPower RocketScript Cycle RT PreMix (Bioneer) to generate complementary DNAs. RT-qPCR for CSF-1, E-cadherin, and 18S was performed with a StepOnePlus Real-Time PCR System (Applied Biosystems, Waltham, MA, USA) and SYBR Green mix (Applied Biosystems) according to the manufacturer’s instructions with gene-specific primers (Table 1).
# Serum stability in FBS = assay type: in vitro ADME, bovine; conditions: 40 μM in DPBS containing 25% FBS, 37 °C, 0–24 h, LC–MS, normalized to control without FBS
# Description: YL2-HyT6 and ND1-YL2 solutions (200 μL, 40 μM in DPBS containing 25% FBS) were incubated at 37 °C for different time periods (0–24 h). For the precipitation of serum proteins, each sample was treated with 100 μL of 15% TFA and incubated at 4 °C overnight. Final samples were then centrifuged at 15,000 rpm for 10 min and filtrated for analysis using LC–MS with a C18 column. The ratio of the remaining compound (%) was calculated by integrating the chromatographic peak of a compound and normalized in comparison with a control sample (incubated without FBS).
# [3] = Circular dichroism (CD), calculated helicity; assay type: physicochemical; conditions: 50 μM peptide in 30% PBS (pH 7.4) and 70% acetonitrile, calculated from CD spectra
# Description: Lyophilized compounds (YL2 and YL2-HyT1 through YL2-HyT6) were dissolved in 30% PBS (pH 7.4) and 70% acetonitrile solution to a final concentration of 50 μM. CD spectra were measured with a Jasco J-815 CD spectropolarimeter using a quartz cuvette (2 mm path length). These spectra were averages of five successive accumulations with a scan rate of 100 nm/min. Raw data were converted in terms of per-residue molar ellipticity (deg·cm^2·dmol^−1·residue^−1) as calculated per mole of amide groups present and normalized by the molar concentration of peptides. Smoothing and correction of background spectra were performed with Origin Pro 8.0 (OriginLab Corporation, Northampton, MA, USA). Then α-helical propensities of YL2 and YL2-HyT1 through YL2-HyT6 were calculated as previously reported.
# [4] = system: CSF-1 mRNA in MDA-MB-231 cells; test: RT-qPCR of CSF-1 mRNA; assay type: cell-based, human; conditions: 18 h, RT-qPCR normalized to 18S
# Description: as §1
smiles,measurement,setting,value
CC(C)C[C@H](NC(=O)CCOCCOCCOCCNC(=O)CNC12CC3CC(CC(C3)C1)C2)C(=O)N[C@@H](CC(C)C)C(=O)N1CCC[C@H]1C(=O)N1CCC[C@H]1C(=O)N[C@H](C(=O)N[C@@H](CCC(=O)O)C(=O)N[C@@H](CCC(N)=O)C(=O)N[C@@H](CC(=O)O)C(=O)N[C@@H](CC(C)C)C(=O)N[C@@]1(C)CCC/C=C\CCC[C@@](C)(C(=O)N[C@@H](Cc2ccc(O)cc2)C(N)=O)NC(=O)[C@H](CC2CCCCC2)NC(=O)[C@H](CC(C)C)NC(=O)[C@H](CCCCN)NC1=O)[C@@H](C)O [YL2-HyT6] (H-[N(1-adamantyl)Gly][PEG3]LLPPTEQDL[S5]KL[Cha][S5]Y-NH2; staple (Z) 12-16; C-terminus assumed),Ki,[1],237 nM
same,Wound gap closure (cell migration),MDA-MB-231 cells,significantly inhibited gap closing
same,E-cadherin mRNA expression level,[2],increase in E-cadherin
same,Serum stability (remaining compound),Serum stability in FBS,improved stability relative to the peptide-based PROTAC (ND1-YL2)
same,Helicity (%),[3],32.6%
same,CSF-1 mRNA expression level,[4],dose-dependent decrease in CSF-1

# From article PMC8232704, “Hydrophobic Tagging-Mediated Degradation of Transcription Coactivator SRC-1” (International Journal of Molecular Sciences, 2021)
